Reference: publication PMC6651038, “16-Hydroxy-Lycopersene, a Polyisoprenoid Alcohol Isolated from Tournefortia hirsutissima, Inhibits Nitric Oxide Production in RAW 264.7 Cells and Induces Apoptosis in Hep3B Cells” (Molecules, 2019)
Like-named read-outs stand apart in the source and are kept apart here.

Key:
[1] = system: nitric oxide (NO) production in LPS-stimulated RAW 264.7 cells; experiment: NO (nitrite, Griess) production in LPS-stimulated RAW 264.7 cells; type: cell-based, murine; conditions: for inhibitory activity on NO production: highest evaluated concentration (60 µg/mL)
Procedure: (§1) RAW 264.7 cells (murine macrophage cell line) were purchased from ATCC (Georgetown, Washington, DC, USA ) and cultured in Advanced DMEM/F12 medium (Gibco, Waltham, MA USA) supplemented with 1% GlutaMAX (Gibco) and 3.5% inactivated FBS (Gibco), without antibiotics at 37 °C in 5% CO2.
RAW 264.7 cells were seeding (2 × 10^4 cells in 200 µL) and incubated for 24 h, then, were treated with various concentrations of the investigated samples, indomethacin (30 µg/mL) or DMSO (0.4%, v/v) for 2 h followed by stimulation with 1 µg/mL of LPS (from E. coli purchased from Sigma Aldrich, St. Louis, MO, USA) for 21 h. The nitrite is a stable metabolite of the NO and its concentration was calculated with Griess reagent and the aid of a standard curve of NaNO2. Cell-free supernatants (50 µL) were collected and incubated for 10 min with the Griess reagent (50 µL of 0.1% N-(1-napthyl)-ethylenediamine dihydrochloride and 50 µL of 1% sulphanilamide both in 2.5% phosphoric acid) at room temperature and absorbance at 540 nm was measured using a microplate reader.

HepG2 cells = experiment: Cell cycle analysis by flow cytometry, HepG2; type: cell-based, human; conditions: HepG2, treatment at IC50, 72 h; control 1.5%
Procedure: (§2) PC3, Hep3B, HepG2 and HeLa cells (1.25 × 10^5 cells/well) were seed in 6-well plates and allowed to attach overnight at 37 °C in 5% CO2. Exponential growing cells were treated with Compound 1 to the IC50 values for 72 h. PTX (10 nM) was included as a positive control of the G2/M phase arrest. Cells from each treatment were trypsinized and collected into single cell suspensions, centrifuged, and fixed in cold ethanol (70%) overnight at −20 °C. The cells were then treated with 0.01 M RNase (Sigma Aldrich, St. Louis, MO, USA) and stained with 7.5 µg/mL PI (Invitrogen) for 30 min in the dark. The percentage of cells in sub-G1, G1, S, and G2/M phases was analyzed with a flow cytometer (Becton Dickinson, FACS Calibur; Beckman Coulter, Inc., Brea, CA, USA) using 10,000 cells for each sample. Data obtained from the flow cytometer were analyzed using the FlowJo Software (Tree Star, Inc., Ashland, OR, USA).

Hep3B = experiment: Antiproliferative MTS assay, Hep3B; type: cell-based; conditions: Homo sapiens, 72 h
Procedure: (§3) PC3 (prostate), HeLa (cervical) and Hep3B and HepG2 (hepatocellular) human cancer cell lines were purchased from ATCC (Manassas, VA, USA). We also included immortalized human hepatocyte cell line (IHH) as a control of non-cancerous cells. PC3 was grown in RPMI-1640 medium (Sigma Aldrich, St. Louis, MO, USA), while Hep3B, HepG2, HeLa and IHH in DMEM medium (Invitrogen, Thermo Fisher Scientific, Waltham, MA, USA) supplemented with 10% SFB and 2 mM glutamine, all cultures were incubated at 37 °C in 5% CO2.
(§4) Cells (4 × 10^3 cells/well) were seeding in 96-well plates. The cells were treated with the investigated samples (at 0.01, 0.1, 1, 10 and 100 µg/mL) and incubated at 37 °C in 5% CO2 for 72 h. PTX was used as positive control. The number of viable cells in proliferation was checked by MTS assay, following the manufacturer’s instructions. The absorbance was measured at 450 nm using an automated ELISA reader (Promega, Madison, WI, USA).

RAW 264.7 cells = experiment: Cell viability of RAW 264.7 cells (MTS); type: cell-based, murine; conditions: at 30 and 60 µg/mL
Procedure: as §1
The cell viability was determined by using MTS from Promega. The cells (1 × 10^4 cells per well) were seeding in 96-well plates in 100 µL of medium and were incubated for 24 h. Then, the cells were treated with various concentrations of the investigated samples, positive control (etoposide, 30 µg/mL) or vehicle (0.4% DMSO in culture medium) and incubated for 24 h. Subsequently, 20 µL of MTS was added at 20 h of treatment for 4 h, after that, the absorbance at 490 nm was measured using a microplate reader (Biotek, Winooski, VT, USA). The absorbance of control cells (untreated) was taken as 100% viability. The concentration of DMSO together with the treatments, in the culture medium was ≤ 0.4%, v/v.

caspase 3/7 = experiment: Caspase-Glo 3/7 assay in Hep3B cells; type: cell-based, human; conditions: 21.3 µM (12 µg/mL), 72 h
Procedure: Hep3B cells (8 × 10^3 cells per well) were plated on 96-well plates and treated with 1 at 21.31 µM for 72 h. After treatment, the caspase 3/7 activity was determined using the luminescent Caspase-Glo® 3/7 Assay (Promega, Madison, WI, USA) following the manufacturer’s instructions. The results were represented as relative units of luminescence.

PC3 = experiment: Antiproliferative MTS assay, PC3; type: cell-based; conditions: Homo sapiens, PC-3, 72 h
Procedure: as §3, §4

Hep3B cells [2] = experiment: Annexin V-FITC/PI staining, flow cytometry; type: cell-based, human; conditions: Compound 1 21.3 µM, PTX 20 nM, 72 h
Procedure: Apoptosis was evaluated using Annexin V Apoptosis Detection Kit FITC (Thermo Fisher Scientific, CA, USA). Hep3B cells (2.5 × 10^5 cells) were treated with 1 (21.31 µM). PTX (20 nM) was used as positive control of apoptosis. After 72 h, the cells were harvested and washed twice with ice-cold PBS (0.01 M, pH 7.2). After 5 min of centrifuging at 200 g. Annexin V-FITC/PI staining were performed according to manufacturer’s instruction. Cell apoptosis was analyzed on flow cytometer (10,000 cells for each sample). Data obtained from the flow cytometer were analyzed using the FlowJo Software.

Hep3B cells [3] = experiment: Cell cycle analysis by flow cytometry, Hep3B; type: cell-based, human; conditions: treatment at IC50, 72 h, control 0.0%
Procedure: as §2

HeLa = experiment: Antiproliferative MTS assay, HeLa; type: cell-based; conditions: Homo sapiens, 72 h
Procedure: as §3, §4

[4] = system: immortalized human hepatocyte cell line (IHH); experiment: Antiproliferative MTS assay, IHH non-cancerous cells; type: cell-based; conditions: 72 h
Procedure: as §3, §4

Bax = experiment: RT-PCR, Bax mRNA in Hep3B cells; type: cell-based, human; conditions: 21.3 µM, 72 h, vs non-treated control
Procedure: (§5) RNA was quantified using NanoDrop ND-1000 (Thermo Scientific, Waltham, MA, USA) and the RNA content was normalized. The RT-PCR was performed using a One-Step RT-PCR Kit with Thermo-Start Taq (Thermo Scientific, Waltham, MA, USA) following the manufacturer's instructions. PCR was performed with the following primers sequences: Bcl-2 ([NT]), Bax ([NT] ([NT]). Sequencing was performed at the Instituto de Biotecnología of Universidad Nacional Autónoma de México.

Bcl-2 = experiment: RT-PCR, Bcl-2 mRNA in Hep3B cells; type: cell-based, human; conditions: 21.3 µM, 72 h, vs non-treated control
Procedure: as §5

HepG2 = experiment: Antiproliferative MTS assay, HepG2; type: cell-based; conditions: Homo sapiens, 72 h
Procedure: as §3, §4

PC3 cells = experiment: Cell cycle analysis by flow cytometry, PC3; type: cell-based, human; conditions: PC3, treatment at IC50, 72 h; control 0.9%
Procedure: as §2

Hep3B cells [5] = experiment: Cell morphology, acridine orange/ethidium bromide staining; type: cell-based, human; conditions: 21.3 µM (12 µg/mL), 72 h
Procedure: The morphological changes of Hep3B cells exposed to Compound 1 were evaluated using acridine orange (AO) and ethidium bromide (EB) staining. In brief, Hep3B cells (2 × 10^4 cells per well) were seeding in 24-well plates and exposed with Compound 1 at 21.31 µM for 72 h. After 72 h of treatment cells were exposed to a solution of 100 µg/mL AO and 100 µg/mL EB, according to reported procedures. For controls, the cells were grown 71 h before being treated 30 min with H2O2 (positive control of apoptosis) or being boiling in water at 95 °C for 10 s (positive control of necrosis). Then, the cells were observed using a fluorescence microscope.

U937 cells = conditions: cited from earlier work
[6] = system: TPA-induced acute edema in mice ear; experiment: TPA-induced ear edema in mice; type: in vivo; conditions: 1 mg/ear topical, male ICR mice, 6 h after TPA
Procedure: Edema in mice ear was induced with TPA purchased from Sigma Aldrich (St. Louis, MO, USA), following the method previously described. All animals were treated in accordance with Official Mexican Rule of Technical Specifications for the Production, Care and Use of Laboratory Animals (NOM-062-ZOO-1999 Guidelines) and international ethical guidelines for the care and use of experimental animals. The experimental protocol was authorized by the local Health Research Committee (Instituto Mexicano del Seguro Social (IMSS)). The experiments were carried out with male ICR mice weighing between 25–30 g (five animals per treatment). […] The treatments were applied topically on right ear and vehicle on left ear, thereafter, the edema was induced by administration topically of TPA (2.5 µg) over both ears. Six hours after administration of TPA, the animals were sacrificed by cervical dislocation. Circular sections 6 mm in diameter were taken from both the treated and non-treated ears and weighed to determine the inflammation.

[7] = system: pro-inflammatory cytokines; design: method as in PMID 27921103; conditions: 40 µM; via heme oxygenase-1 induction; cited from earlier work
[8] = 6 µM, mediated by caspase-3-like (CPP32-like) activation

Molecule | IC50 (Hep3B) [µM] | IC50 (PC3) [µM] | IC50 (HeLa) [µM] | IC50 [4] [µM] | IC50 (HepG2) [µM] | further results
CC(C)=CCC/C(C)=C/CC/C(C)=C/CC/C(C)=C/C[C@@H](O)/C=C(\C)CC/C=C(\C)CC/C=C(\C)CCC=C(C)C [Compound 1, (6E,10E,14E,18E,22E,26E)-2,6,10,14,19,23,27,31-octamethyldotriaconta-2,6,10,14,18,22,26,30-octaen-16R-ol] | 21.3 ± 3.5 | 32 ± 4.4 | 37.3 ± 3.5 | 88.8 ± 8.9 | 26.6 ± 3.5 | inhibition at 25.6 µM ([1]; Mus musculus, RAW264.7, 14.4 µg/mL (25.6 µM)): 28.6 ± 1.81%; population in sub-G1 phase (HepG2 cells): 14.8%; effect on cell viability of RAW 264.7 cells (RAW 264.7 cells): decreased the cell viability; caspase 3/7 activation (caspase 3/7): statistically significant increase in caspase 3/7 activation; percentage of early phase apoptosis cells (Hep3B cells [2]): 22.6%; population in sub-G1 phase (Hep3B cells [3]): 18.5%; Bax transcripts (Bax): increased Bax transcripts; Bax/Bcl-2 ratio (Bax): increasing the Bax/Bcl-2 ratio; Bcl-2 transcripts (Bcl-2): inhibition of Bcl-2; population in sub-G1 phase (PC3 cells): 19.0%; morphological changes (AO/EB fluorescence microscopy) (Hep3B cells [5]): apoptotic bodies formation and clear condensation of chromatin
CC(C)=CCC/C(C)=C/CC/C(C)=C/CC/C(C)=C/CC/C(C)=C\CC/C(C)=C\CC/C(C)=C\CC/C(C)=C\CC/C(C)=C\CC/C(C)=C\CC/C(C)=C\CC/C(C)=C\CO [Compound 2, (Z8,E3,ω)-dodecaprenol] | 50.3 ± 5.9 | 74.2 ± 5 | 95.7 ± 12 | 76.6 ± 6 | 76.6 ± 6 | inhibitory activity on NO production [1]: negligible inhibitory activity
CC(C)=CCC/C(C)=C/CC/C(C)=C/CC/C(C)=C/CC/C(C)=C\CC/C(C)=C\CC/C(C)=C\CC/C(C)=C\CC/C(C)=C\CC/C(C)=C\CC/C(C)=C\CC/C(C)=C\CC/C(C)=C\CO [Compound 3, (Z9,E3,ω)-tridecaprenol] | 69.7 ± 5.5 | 76.4 ± 6.6 | 84.1 ± 8.9 | 74.1 ± 5.5 | 74.2 ± 5.5 | inhibitory activity on NO production [1]: negligible inhibitory activity
CC(=O)O[C@H]1C(=O)[C@@]2(C)[C@H]([C@H](OC(=O)c3ccccc3)[C@]3(O)C[C@H](OC(=O)[C@H](O)[C@@H](NC(=O)c4ccccc4)c4ccccc4)C(C)=C1C3(C)C)[C@]1(OC(C)=O)CO[C@@H]1C[C@@H]2O [Paclitaxel, reference compound] | 0.008 ± 0.001 | 0.0154 ± 0.0035 | 0.01 ± 0.002 | 0.08 ± 0.005 | 0.0065 ± 0.0007 | –
CC(C)=CCC/C(C)=C/CC/C(C)=C/CC/C(C)=C/CC/C(C)=C/CC/C(C)=C/CC/C(C)=C/CC/C(C)=C\CC/C(C)=C/CCC(C)CCOP(=O)(O)O (stereo not drawn) [dihydrodecaprenyl phosphates, dihydrodecaprenyl phosphate] | – | – | – | – | – | apoptosis in U937 cells (U937 cells; [8]): induced apoptosis
COc1ccc2c(c1)c(CC(=O)O)c(C)n2C(=O)c1ccc(Cl)cc1 [indomethacin, reference compound] | – | – | – | – | – | inhibition at 30 µg/mL ([1]; Mus musculus, RAW264.7, 30 µg/mL): 54.6 ± 8.9%; edema inhibition [6]: 87.6 ± 0.4%
CC(C)=CCC/C(C)=C/CC/C(C)=C/CC/C(C)=C/CC/C(C)=C/CC/C(C)=C/CC/C(C)=C/CC/C(C)=C/CC/C(C)=C/CO [solanesol] | – | – | – | – | – | production of pro-inflammatory cytokines [7]: suppresses the production of pro-inflammatory cytokines
Dihydroheptaprenyl phosphate | – | – | – | – | – | apoptosis in U937 cells (U937 cells; [8]): induced apoptosis
Dolichyl phosphate | – | – | – | – | – | apoptosis in U937 cells (U937 cells; 8 µg/mL, by the MAP kinase cascade): induced apoptosis
